CC(=O)OCc1c(Br)cccc1N1CCc2c(sc3c2CC(C)(C)C3)C1=O gave a melting point of 126 to 128 °C. For CCOc1cc(C=[N+]([O-])C2CCCCC2)ccc1OC, the melting point was 114 °C. Work on COC(=O)c1ccc(NC(C)=O)c(CO)c1 yielded a melting point of 60 °C. Compound COC(=O)Cc1cc2ccc(OC)cc2[nH]c1=O has a melting point of 195 to 196 °C. For FC(F)(F)C1(c2cc(Cl)cc(Cl)c2)CC(c2ccc(-n3ccnc3)cc2)=NO1 (stereo not given), the melting point was 193 to 195 °C. With OC(COc1ccc(Cl)cc1)(Cn1cncn1)c1ccc(Br)s1 (stereo not given) the melting point was 108 to 112 °C. For CC(=O)CC(=O)c1ccc(C)nc1, the melting point was 57 to 58 °C. Work on CC(C)OC(=O)c1ccccc1C(=O)O yielded a melting point of 73 to 77 °C. CCCCc1oc2ccccc2c1C(=O)NCc1ccc2c(-c3ccccc3)c(O)ccc2c1 gave a melting point of 72 °C. Work on O=P(O)(O)OC(Cn1cncn1)(Cn1cncn1)c1ccc(F)cc1F yielded a melting point of 223 to 224 °C. With O=C1c2ccc(Cl)cc2CC1Sc1ccccc1 (stereo not given) the melting point was 89 °C. Work on O=C(Cc1ccccc1Nc1c(Cl)cccc1Cl)OCc1ccccn1 yielded a melting point of 80 to 81 °C. Work on Cc1cc([C@@H]2CCC(=O)N2)on1 yielded a melting point of 90 to 91 °C. Compound Nc1nc(SCc2ccc3ccccc3c2)nc(O)c1CCO has a melting point of 192 to 193 °C. In the case of CCCCCCCCCCCCNC(=S)NCCCC, the melting point is reported as 49 to 55 °C. Compound O=C(NCCC1=CCCCC1)NCCC1=CCCCC1 has a melting point of 129 to 131 °C. For CNc1ccc(Nc2nc(N3CCOCC3)nc(-n3c(C(F)F)nc4c(OC)cccc43)n2)cn1, the melting point was 218 to 221 °C. In the case of C[C@H](CS(C)(=O)=O)Nc1n[nH]c2nc(Oc3ccc(F)cc3F)ncc12, the melting point is reported as 178 to 179 °C. For NC(=O)c1csc(-c2cccc([N+](=O)[O-])c2)n1, the melting point was 239 to 241 °C. Work on COc1cc(C(=O)O)ccc1Cc1cn(C)c2ccc(CCNC(=O)N(C)C)cc12 yielded a melting point of 195 to 196 °C. Oc1ccc(C2CCc3ccc(O)cc3O2)cc1 (stereo not given) gave a melting point of 110 to 111 °C. Work on O=c1[nH]c(=O)n(Cc2ccc(OCCCCCCCCCOc3ccc(Cn4oc(=O)[nH]c4=O)cc3)cc2)o1 yielded a melting point of 149 to 151 °C. Compound CCOC(=O)Cc1cccc(N)n1 has a melting point of 66 to 68 °C. With Cc1csc2c(-c3ccccc3)c(-c3ccc(Cl)s3)c(CC(=O)O)n12 the melting point was 182 to 183 °C. With Cc1cc(OC(=O)N(C)SSC(C)(C)C)cc(C)c1N=Cc1ccccc1O the melting point was 121 to 124 °C. Nc1ccccc1C(=O)C1CCC1 showed a melting point of 55 °C. O=C(Nc1cccnc1)N1CCN(c2cc(-c3ccc(F)cc3F)ncn2)CC1 showed a melting point of 171 to 172 °C. O=S(c1ccncc1)C1CCNCC1 (stereo not given) showed a melting point of 73 to 76 °C. CCOC(=O)c1c(N)c2ccc(C)nc2n(CC)c1=O gave a melting point of 196 to 198 °C. Work on O=C(Nc1ccc(C2=CCN(C(=O)Nc3ccc(OCCO)cc3C(F)(F)F)CC2)cc1)Nc1ccccc1F yielded a melting point of 110 to 112 °C. Work on CCCCCCCCCCCCCCCCCCOc1ccc(OCCCc2ccccc2)c(C(=O)N(CC(=O)O)CC(=O)O)c1 yielded a melting point of 101 to 102 °C. Work on CN(CCCCCCCC(=O)O)c1cnc(-c2ccccc2)c(-c2ccccc2)n1 yielded a melting point of 116 to 117 °C. Compound COc1ccc(CCNC(=O)C(F)(F)F)cc1S(=O)(=O)Cl has a melting point of 96 to 98 °C. For CCCCCCCC/C=C\CCCCCCCC(=O)CCCNC(=O)CCNC(=O)C1OC(C)(C)OCC1(C)C (stereo not given), the melting point was 45 to 47 °C. In the case of COC(=O)c1c(N)cc(Cl)cc1[N+](=O)[O-], the melting point is reported as 114 to 116 °C. Work on COc1cccc(F)c1-c1cc(NC(=O)C2CCNCC2)ncn1 yielded a melting point of 140 to 143 °C. With O[C@@H](CNCCOc1ccc2oc(-c3ccon3)cc2c1)COc1ccccc1Cl the melting point was 93 to 96 °C. CCCN(CCC)CCCC1CCN(CCNC(=O)N2c3ccccc3NC(=O)c3csc(C)c32)CC1 gave a melting point of 114 to 115 °C. Compound O=C(O)CS(=O)(=O)c1cc(NS(=O)(=O)c2cccs2)c2ccccc2c1O has a melting point of 190 to 192 °C. N#Cc1cn(C2CC2)c2c(F)c(F)c(F)cc2c1=O showed a melting point of 213 to 215 °C. O=C(O)CCc1oc(N2CCOCC2)nc1-c1ccc(Cl)cc1 gave a melting point of 180 to 181 °C. Work on COC(=O)CCCc1cc2nc(Cl)ccc2n1S(=O)(=O)c1ccc(C)cc1 yielded a melting point of 106 °C. With O=C(Nc1cccc2[nH]ccc12)c1ccccc1OCC(O)CN1CCN(C(c2ccccc2)c2ccccc2)CC1 (stereo not given) the melting point was 170 °C. In the case of C=CC(=O)Nc1ccc2[nH]nnc2c1, the melting point is reported as 248 to 253 °C. For CCN(CC)CCC(=O)Nc1ccc2c(=O)c3ccc(NC(=O)CCN(CC)CC)cc3[nH]c2c1, the melting point was over 320 °C. In the case of CC1CCCN(C(=O)c2nc(-c3ccccc3)nc3ccccc23)C1 (stereo not given), the melting point is reported as 116 °C. Cc1cccc(C)c1CNc1cc(C2=NCCN2)cc2c1nc(C)n2C showed a melting point of 273 to 274 °C. COc1ccc(NC2C3CCC(CC3=O)C2(C)c2ccccc2)cc1 (stereo not given) showed a melting point of 138 to 139 °C. CC(=O)c1ccc(-c2ccnc(Nc3ccc4c(c3)OCCO4)c2)cc1 showed a melting point of 178 to 180 °C. CCCCCCCCCCCCOC(CCCCCCCCCCCC)COCC(O)COc1ccc(N2CCOCC2)cc1 (stereo not given) showed a melting point of 49 to 52 °C. For CCCCCCCCCCCCCCc1ccc(OCC2COC(C)(C)O2)cc1 (stereo not given), the melting point was 52 to 53 °C. Work on Cc1nc(-c2ccccc2)c(CC(C)(C)C(=O)O)o1 yielded a melting point of 129 to 130 °C. O=C(CC1COCCO1)NC1CCC(CCN2CCN(c3nccc4c3OCC4)CC2)CC1 (stereo not given) gave a melting point of 181 °C. Work on CCOc1cc(N(CC)CC)ccc1-c1nc2n(C3CCCC3)[nH]c(CC)c-2c(=O)n1 yielded a melting point of 138 to 139 °C. O=C(Nc1ccccc1)Nc1cc(Cl)nc(Cl)c1 gave a melting point of 219 to 222 °C. Cc1cc(O)c(C)cc1O gave a melting point of 60 to 62 °C. CCCCc1nc2ccccn2c(=O)c1-c1ccc(N2CCN(C(=O)OC(C)(C)C)CC2)nc1 gave a melting point of 126 to 128 °C. For Clc1ccc(N=C2NCCN2)c(Cl)c1Cl, the melting point was 161 °C. In the case of OC1CSC(Oc2cc(F)ccc2-c2ccncc2)C(O)C1O (stereo not given), the melting point is reported as 209 °C. For CCCc1cc(=O)oc2cc(OC(=O)CC)cc(O)c12, the melting point was 166 to 168 °C. C=C(CC)C(=O)c1ccc(OCC(=O)NCCCCF)c(Cl)c1Cl showed a melting point of 94 to 96 °C. For O=C(NCc1ccccc1O)[C@@H]1CCCN(c2cccc3c2C(=O)N(Cc2ccncc2)C3=O)C1, the melting point was 181 to 182 °C. CCNC(=O)c1ccc(F)cc1 gave a melting point of 73.2 to 76.3 °C. C#CCn1c(=O)c2cc(Cl)ccc2c2ccc(Cl)cc21 gave a melting point of 248 to 250 °C. In the case of NS(=O)(=O)c1cc(NC(=O)c2cnn3c(C(F)F)cc(-c4ccc(C(F)(F)F)cc4)nc23)c(Cl)s1, the melting point is reported as 298 °C. Work on CN1CCN(c2nn(-c3ccc(O)cc3)c3ccccc23)CC1 yielded a melting point of 191 to 193 °C. With CC(=O)N1CCC(c2nc3n(C4CCCC4)[nH]c(C)c-3c(=O)n2)CC1 the melting point was 176 to 178 °C. Nc1ccc(CN2CCN(c3ccccc3)CC2)cc1 gave a melting point of 105 °C. Work on CC(C)(C)OC(=O)CON=C(C(=O)O)c1ccco1 yielded a melting point of 105 to 106 °C. In the case of COc1c(N)cc(C)cc1N, the melting point is reported as 67 to 69 °C. In the case of CCOC(=O)c1cc2ccc3c(c2cc1OC)OC(n1cccc1)=C(C#N)C3c1cccc([N+](=O)[O-])c1 (stereo not given), the melting point is reported as 190 to 191 °C. For CC(C)(C)OC(=O)N1CCCCN1C(=O)OCc1ccccc1, the melting point was 71 to 72 °C. Cc1nn(C)c2nc(-c3ccccc3)cc(O)c12 gave a melting point of 262 to 264 °C. CC1(C)CCC(=C[C@H]2[C@H](C(=O)O)C2(C)C)CC1 (relative stereo) showed a melting point of 96 °C. For CCOc1nn(-c2ccc(C(F)(F)F)cn2)cc1CCCOc1ccc(OC(C)(C)C(=O)O)cc1, the melting point was 91 to 92 °C. In the case of COC(=O)C(=Cc1cc(OC)cc(OC)c1)c1ccc(Oc2ccc(CC3SC(=O)NC3=O)cc2)cc1 (stereo not given), the melting point is reported as 65 to 66 °C. Work on COc1cc(C2c3cc4c(cc3C(NC(=O)CNCCN(C)C)C3COC(=O)C23)OCO4)cc(OC)c1O (stereo not given) yielded a melting point of 230 °C. With COc1cc2c(cc1OC)CN(CCCCc1ccc(NC(=O)c3nc4ccccc4nc3C)cc1)CC2 the melting point was 146 °C. O=[N+]([O-])c1ccc(O)c(CNCCC(F)=C(F)F)c1 gave a melting point of 96 to 98 °C. COc1cc(NC(=O)NS(=O)(=O)c2ccccc2Cl)nc(OC)n1 showed a melting point of 193 to 196 °C. CCCn1nc(C(C)C)cc1Cc1ccc(-c2ccccc2-c2nnn[nH]2)cc1 gave a melting point of 147 to 149 °C. With Cc1cccc(CC(=O)N2C[C@@H]3C(=O)CCC(c4ccccc4)(c4ccccc4)[C@@H]3C2)c1 (racemic) the melting point was 184 °C. With CCOC(=O)C1=C(C)NC(C)=C(C(=O)OCC)C1c1cc2ccccc2s1 the melting point was 167 to 169 °C. For Nc1ccc(S(F)(F)(F)(F)F)cc1[N+](=O)[O-], the melting point was 132 to 135 °C. Work on Cc1ccccc1OCCC(=O)N(C)c1ccccc1 yielded a melting point of 76 °C. Compound CC(O)(C(=O)Nc1ccc(Cl)cc1)c1ccc(F)cc1Cl (stereo not given) has a melting point of 167 °C. For Cc1ccnc(C(=O)n2cc(CC(=O)O)c3cc(C)ccc32)c1, the melting point was 220 to 226 °C. O=[N+]([O-])c1cccc(-c2nc(O)cc3cccnc23)c1 gave a melting point of 262 to 265 °C. With COC(=O)CCc1ccc(C(=C2CC(C)(C)CC(C)(C)C2)c2ccc(O)cc2)cc1 the melting point was 129 to 130 °C. Work on COc1cc(OC)cc(-c2nc3ccc(Nc4ccncc4)cc3c(=O)[nH]2)c1 yielded a melting point of 289 to 290 °C. COc1ccc(CNc2nc(NCCCc3ccc(C(C)(C)O)cc3)nc3ncccc23)cc1OC gave a melting point of 198 to 199 °C. In the case of Cc1nn(-c2ccccn2)c2c1C(O)CC(C)(C)C2 (stereo not given), the melting point is reported as 125 to 126 °C. With CC(OCc1cc2cc(C(F)(F)F)ccc2n1S(=O)(=O)c1ccccc1)C(=O)O (stereo not given) the melting point was 72 to 74 °C. Work on Nc1ccccc1NC(=O)/C=C/c1ccccc1I yielded a melting point of 194 to 196 °C. Cc1cc(SC2=C(O)CC(CCc3ccc(O)cc3)(CCc3ccc(O)cc3)OC2=O)c(C(C)(C)C)cc1OS(=O)(=O)N1CCN(C)CC1 showed a melting point of 150 °C. Cc1ccccc1-c1ccc(C(=O)N2Cc3ccc(C(=O)NCc4ccc(Cl)cc4)n3Cc3ccccc32)cc1C showed a melting point of 196 to 197 °C. Work on Cc1cc(-c2cc(C(F)(F)F)n3ncc(C(=O)Nc4cccc(S(C)(=O)=O)c4)c3n2)ccc1C(F)(F)F yielded a melting point of 233 °C. Work on COc1ccc(CN(CCN(C)CCNC(=C[N+](=O)[O-])NCCCOc2cccc(CN3CCCCC3)c2)c2ccccn2)cc1 yielded a melting point of 102 to 104 °C. In the case of CSC(C)(C(=O)O)c1cccc(C2(c3ccccc3)OCCO2)c1 (stereo not given), the melting point is reported as 118 to 120 °C. For COC(=O)c1ccc(SCn2cc(I)cnc2=O)cc1, the melting point was 210 °C.
